Measurements reported in article PMC4214736, “Identification of a Novel Drug Lead That Inhibits HCV Infection and Cell-to-Cell Transmission by Targeting the HCV E2 Glycoprotein” (PLoS ONE, 2014).

How the values were obtained:
[1] = target: T1, recombinant HCV E2 protein (Con1eE2, eE2) (Hepatitis C virus (isolate Con1), UniProt Q9WMX2); experiment: SPR single concentration screen (Biacore T100, CM5 chip); assay type: binding; conditions: 200 µM ligand in PBS; E2 immobilised by amine coupling (about 10,000 RU)
T1 construct: E2 ectodomain residues 384-656 cut from the HCV genome polyprotein; C-terminal Protein A tag removed by PreScission protease; secreted from HEK293T cells (lentiviral)
T1 sequence (Q9WMX2 384-656): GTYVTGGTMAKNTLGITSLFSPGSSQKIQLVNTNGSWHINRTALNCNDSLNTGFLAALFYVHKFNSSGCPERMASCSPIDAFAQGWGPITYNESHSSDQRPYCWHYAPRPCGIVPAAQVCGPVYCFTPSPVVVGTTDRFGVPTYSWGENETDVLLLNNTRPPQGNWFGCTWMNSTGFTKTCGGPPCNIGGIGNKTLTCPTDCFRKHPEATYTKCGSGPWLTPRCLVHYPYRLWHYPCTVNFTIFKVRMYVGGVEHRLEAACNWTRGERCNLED
Description: SPR single concentration screen (Biacore T100, CM5 chip) on recombinant HCV E2 protein (Con1eE2, eE2)

[2] = target: T2, HCV E2 protein binding to GST-tagged human CD81-LEL (Hepatitis C virus (isolate Con1), UniProt Q9WMX2); experiment: ELISA, inhibition of E2 binding to immobilised CD81-LEL
T2 construct: with CD81 antigen (Homo sapiens)
T2 sequence (Q9WMX2 384-656, one chain of several): as the sequence (Q9WMX2 384-656) above

[3] = target: T1, recombinant HCV E2 protein (Con1eE2, eE2); experiment: SPR single cycle kinetics (Biacore T100, CM5 chip); assay type: binding
his-tagged CD81-LEL = target: T3, his-tagged CD81-LEL (Homo sapiens, UniProt P60033); experiment: SPR single cycle kinetics (Biacore T100, CM5 chip); assay type: binding
T3 construct: His-tagged, commercial (Bioclone Inc.)
T3 sequence (P60033 113-201 limits assumed): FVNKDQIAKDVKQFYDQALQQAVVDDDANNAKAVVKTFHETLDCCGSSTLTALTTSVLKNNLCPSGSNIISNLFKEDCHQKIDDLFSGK

[4] = target: HCV E2 protein Con1 eE2 (envelope protein 2 ectodomain, amino acids 384-656) (Hepatitis C virus, isolate Con1 (genotype 1)) (UniProt Q9WMX2); experiment: SPR; Biacore T100; HCV E2 (1 µM in 10 mM sodium acetate pH 5) immobilised on a CM5 chip by amine coupling, about 10,000 RU; his-CD81 (50 nM) in PBS injected as positive control
HCV E2 protein Con1 eE2 (envelope protein 2 ectodomain, amino acids 384-656) (Hepatitis C virus, isolate Con1 (genotype 1)), sequence (Q9WMX2 384-656): as the sequence (Q9WMX2 384-656) above

Molecule	Binding (RU) [1] [RU]	further results
Nc1nc(N)nc(-c2ccccc2-c2nc(N)nc(N)n2)n1 [compound 4429, NSC# 4429]	155.3	–
Cc1nc(/N=C(/N)N(C)C)[nH]c(=O)c1C [compound 113486, NSC# 113486]	104.7	–
CC1(C)N=C(N)N=C(N)N1c1ccc(OCCCOc2ccccc2)c(Cl)c1.CCS(=O)(=O)O [compound 133071, NSC# 133071]	276.3	–
COc1ccc(C2=CC(c3ccc(OC)c(OC)c3)c3c(c4ccccc4oc3=O)O2)cc1OC (stereo not drawn) [compound 211490, NSC# 211490]	102.9	–
CSc1ccc2c(c1)C(N1CCN(C)CC1)Cc1ccccc1S2 (stereo not drawn) [compound 281816, 1-methyl-4-(3-methylsulfanyl-5,6-dihydrobenzo[b] [1]benzothiepin-5-yl)piperazine]	–	IC50 [2]: 0.2 to 0.5 µM; Kd [3]: 41 µM; Kd (his-tagged CD81-LEL): 57 µM
His-CD81-LEL (large extracellular loop of CD81, his-tagged) (domain or fragment)	–	response units bound [4]: 106 RU
NSC# 144694 [compound 144694]	118.8	–
